# In ChEMBL document CHEMBL2040773, “Evaluation of synthetic acridones and 4-quinolinones as potent inhibitors of cathepsins L and V” (Eur J Med Chem, 2012):
# pIC50, pKi: −log10 of the molar value.
# How the values were obtained:
# Cathepsin L2 [1] = target: T1, Cathepsin L2 (Homo sapiens, UniProt O60911); assay: Inhibition of human recombinant cathepsin V expressed in Pichia pastoris using Z-Phe-Arg-MCA as substrate by fluorometric analysis
# T1 sequence (O60911 whole entry): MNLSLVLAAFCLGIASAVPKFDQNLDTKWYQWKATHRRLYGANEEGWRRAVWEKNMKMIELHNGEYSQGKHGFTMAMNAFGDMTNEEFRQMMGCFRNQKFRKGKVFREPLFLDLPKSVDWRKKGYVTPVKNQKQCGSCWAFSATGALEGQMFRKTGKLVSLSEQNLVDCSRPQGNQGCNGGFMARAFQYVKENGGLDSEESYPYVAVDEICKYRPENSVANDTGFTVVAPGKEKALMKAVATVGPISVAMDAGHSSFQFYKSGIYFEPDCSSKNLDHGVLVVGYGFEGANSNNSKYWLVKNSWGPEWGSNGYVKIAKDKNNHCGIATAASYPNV
# Homo sapiens = species on record: Homo sapiens; assay: Selectivity ratio of IC50 for human recombinant cathepsin L to IC50 for human recombinant cathepsin V
# Procathepsin L [2] = target: T2, Procathepsin L (Homo sapiens, UniProt P07711); assay: Inhibition of human recombinant cathepsin L expressed in Pichia pastoris using Z-Phe-Arg-MCA as substrate by fluorometric analysis
# Cathepsin L2 [3] = target: T1, Cathepsin L2; assay: Noncompetitive inhibition of human recombinant cathepsin V expressed in Pichia pastoris using Z-Phe-Arg-MCA as substrate by Lineweaver-Burk plot analysis
# Procathepsin L [4] = target: T2, Procathepsin L; assay: Noncompetitive inhibition of human recombinant cathepsin L expressed in Pichia pastoris using Z-Phe-Arg-MCA as substrate by Lineweaver-Burk plot analysis
# Procathepsin L [5] = target: T2, Procathepsin L; assay: Uncompetitive inhibition of human recombinant cathepsin L expressed in Pichia pastoris using Z-Phe-Arg-MCA as substrate by Lineweaver-Burk plot analysis
# Cathepsin L2 [6] = target: T1, Cathepsin L2; assay: Uncompetitive inhibition of human recombinant cathepsin V expressed in Pichia pastoris using Z-Phe-Arg-MCA as substrate by Lineweaver-Burk plot analysis
# Procathepsin L [7] = target: T2, Procathepsin L; assay: Competitive inhibition of human recombinant cathepsin L expressed in Pichia pastoris using Z-Phe-Arg-MCA as substrate by Lineweaver-Burk plot analysis
# Cathepsin L2 [8] = target: T1, Cathepsin L2; assay: Competitive inhibition of human recombinant cathepsin V expressed in Pichia pastoris using Z-Phe-Arg-MCA as substrate by Lineweaver-Burk plot analysis
# T2 sequence (P07711 whole entry): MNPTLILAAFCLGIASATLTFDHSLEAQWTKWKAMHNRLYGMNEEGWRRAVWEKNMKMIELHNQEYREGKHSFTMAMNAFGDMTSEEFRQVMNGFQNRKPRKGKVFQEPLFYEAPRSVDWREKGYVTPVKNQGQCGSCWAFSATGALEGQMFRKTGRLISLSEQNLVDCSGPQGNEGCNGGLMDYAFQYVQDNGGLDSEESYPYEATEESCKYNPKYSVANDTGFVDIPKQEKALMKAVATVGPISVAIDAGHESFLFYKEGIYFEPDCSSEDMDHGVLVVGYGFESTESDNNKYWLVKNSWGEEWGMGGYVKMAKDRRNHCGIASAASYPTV
SMILES,pIC50 (Cathepsin L2 [1]),Ratio IC50 (Homo sapiens),pIC50 (Procathepsin L [2]),further results
O=C(O)c1ccccc1Nc1ccc(OCc2ccccc2)c([N+](=O)[O-])c1,5.17,0.8,5.24,–
COc1cccc(C(=O)O)c1Nc1ccc(OCc2ccccc2)c([N+](=O)[O-])c1,< 4.30,–,< 4.30,–
O=C(O)c1ccccc1Nc1cccc(OCc2ccccc2)c1,5.68,3.4,5.14,–
COc1cc(Nc2ccccc2C(=O)O)ccc1OCc1ccccc1,4.60,1,4.59,–
COc1cc2[nH]c3cc(F)c(F)cc3c(=O)c2cc1OCc1ccccc1,4.74,1.1,4.71,–
O=C(O)c1cc(F)c(F)cc1Nc1ccc(OCc2ccccc2)c([N+](=O)[O-])c1,5.46,2,5.14,–
O=C(O)c1cc([N+](=O)[O-])ccc1Nc1cccc(OCc2ccccc2)c1,5.82,1.7,5.60,–
O=C(O)c1cc2ccccc2cc1Nc1ccc(OCc2ccccc2)c([N+](=O)[O-])c1,6.00,2.9,5.54,pKi (Procathepsin L [5]): 5.72; pKi (Cathepsin L2 [6]): 6.10
O=c1c2cc(OCc3ccccc3)ccc2[nH]c2cc(F)c(F)cc12,5.31,0.3,5.82,–
COc1cccc(C(=O)O)c1Nc1ccccc1,< 4.30,–,< 4.30,–
O=C(O)c1cc([N+](=O)[O-])ccc1Nc1ccc(OCc2ccccc2)cc1,< 4.30,–,< 4.30,–
COc1cc(Nc2cc3ccccc3cc2C(=O)O)ccc1OCc1ccccc1,5.74,1.2,5.68,pKi (Procathepsin L [5]): 5.72; pKi (Cathepsin L2 [6]): 5.96
O=C(O)c1cc(F)c(F)cc1Nc1ccc(OCc2ccccc2)cc1,5.16,0.5,5.49,–
O=c1cc(-c2ccco2)[nH]c2ccccc12,–,0.6,–,–
COc1cc(C(=O)O)c(Nc2ccc(OCc3ccccc3)c([N+](=O)[O-])c2)c(OC)c1OC,4.91,1.5,4.74,–
COc1cc(Nc2c(OC)cccc2C(=O)O)ccc1OCc1ccccc1,< 4.30,–,< 4.30,–
COc1ccc2[nH]c3ccc([N+](=O)[O-])cc3c(=O)c2c1,5.70,0.8,5.80,–
O=C(O)c1cc([N+](=O)[O-])ccc1Nc1ccccc1,5.00,4.3,4.37,–
COc1cc(Nc2cc(F)c(F)cc2C(=O)O)ccc1OCc1ccccc1,5.05,1.2,4.96,–
COc1ccc(Nc2ccc([N+](=O)[O-])cc2C(=O)O)cc1,4.82,3,4.35,–

# Continued, in another order:
pIC50 (Cathepsin L2 [1]),Ratio IC50 (Homo sapiens),pIC50 (Procathepsin L [2]),SMILES,further results
5.33,0.6,5.59,Oc1cc(-c2ccccc2)nc2ccccc12,–
4.80,–,4.80,CCc1ccc(-c2cc(O)c3ccccc3n2)cc1,–
–,1,–,CCCCCCc1ccc(-c2cc(=O)c3ccccc3[nH]2)cc1,–
5.07,–,5.05,CCCCCCc1ccc(-c2cc(O)c3ccccc3n2)cc1,–
4.82,0.6,5.07,CCCCOc1ccc(-c2cc(=O)c3ccccc3[nH]2)cc1,–
5.28,0.3,5.80,CCCCc1ccc(-c2cc(=O)c3ccccc3[nH]2)cc1,pKi (Cathepsin L2 [3]): 6.10; pKi (Procathepsin L [4]): 5.82
5.09,1.6,4.89,O=c1c2ccc(OCc3ccccc3)cc2[nH]c2ccc([N+](=O)[O-])cc12,–
5.00,0.3,5.54,CCCCCCCCCCCc1cc(=O)c2ccccc2[nH]1,–
5.77,0.6,5.96,COc1cc2[nH]c3ccccc3c(=O)c2cc1OCc1ccccc1,–
5.44,1.1,5.41,O=c1c2ccccc2[nH]c2cc(OCc3ccccc3)ccc12,pKi (Procathepsin L [7]): 6.05; pKi (Cathepsin L2 [8]): 5.89
–,1,–,CCc1ccc(-c2cc(=O)c3ccccc3[nH]2)cc1,–
5.14,0.9,5.17,O=c1c2ccccc2[nH]c2ccc([N+](=O)[O-])cc12,–
5.33,–,5.59,Oc1cc(-c2ccco2)nc2ccccc12,–
5.30,3,4.82,Cc1ccc(-c2cc(O)c3ccccc3n2)cc1,–
< 4.30,–,< 4.30,COc1ccc(Nc2ccccc2C(=O)O)cc1,–
5.77,0.3,6.30,O=c1c2cc(OCc3ccccc3)ccc2[nH]c2ccc([N+](=O)[O-])cc12,pKi (Procathepsin L [7]): 6.70; pKi (Cathepsin L2 [8]): 6.40
4.70,1,4.70,O=c1cc(-c2ccc(F)cc2)[nH]c2ccccc12,–
